Laboratory results reported in US7960562B2, “Propane-1,3-dione derivative or salt thereof” (Astellas Pharma Inc., priority 2005, dated 2011).
Where two headings read alike, the source gives them in different places.

Target: T1, human GnRH receptor (Homo sapiens, UniProt P30968)
T1 sequence (P30968 1-328): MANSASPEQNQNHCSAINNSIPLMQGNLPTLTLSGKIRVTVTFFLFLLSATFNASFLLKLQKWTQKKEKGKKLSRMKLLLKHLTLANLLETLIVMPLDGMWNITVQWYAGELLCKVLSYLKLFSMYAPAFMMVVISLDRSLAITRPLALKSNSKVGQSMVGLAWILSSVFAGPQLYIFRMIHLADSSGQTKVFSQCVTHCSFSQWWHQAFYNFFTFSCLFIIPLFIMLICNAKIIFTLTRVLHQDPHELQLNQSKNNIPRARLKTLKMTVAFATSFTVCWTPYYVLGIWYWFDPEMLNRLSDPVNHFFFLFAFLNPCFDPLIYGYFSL
Experiment: Test for GnRH receptor antagonistic effect (inhibition of 125I-D-Trp6-LHRH binding)
Experimental: The GnRH receptor antagonistic effects of the compounds of the present invention were evaluated by calculating their concentration that inhibit 50% of the binding of ^125I-D-Trp^6-LHRH to a human GnRH receptor (IC50), according to the description in Patent Reference 1, page 56 “1. Test for GNRH Receptor Antagonistic Effect”.
Accordingly, for confirming the usefulness of “group of —SO2—R^3”, the activities of the compounds of the present invention was compared with those of the comparative compounds having —CO—R^3 group.

[1] = Table 2, read-out: IC50 (GnRH receptor binding), SO2-R3 compounds versus comparative CO-R3 compounds
[2] = Table 1, read-out: IC50 (concentration that inhibits 50% of the binding of 125I-D-Trp6-LHRH to a human GnRH receptor)

| Structure (SMILES) | IC50 [1] [nM] | IC50 [2] [nM] |
| --- | --- | --- |
| CC(C)(O)C(=N)NS(=O)(=O)c1cc(C(=O)C(C(=O)c2cccc(F)c2)=C2Nc3ccccc3N2)ccc1F [Example 662] | – | 0.24 |
| NC(N)=NS(=O)(=O)c1cccc(C(=O)C(C(=O)c2cc(F)cc(F)c2)=C2Nc3ccccc3N2)c1 [Example 89] | 0.022 | – |
| CC(=O)NC(N)=NS(=O)(=O)c1cccc(C(=O)C(C(=O)c2cc(F)cc(F)c2)=C2Nc3ccccc3N2)c1 [Example 74] | 0.56 | – |
| C[C@@H](O)C(=N)NS(=O)(=O)c1cc(C(=O)C(C(=O)c2cccc(F)c2)=C2Nc3ccccc3N2)ccc1F [Example 696, (2R)-N-({5-[2-(1,3-dihydro-2H-benzimidazol-2-ylidene)-3-(3-fluorophenyl)-3-oxopropanoyl]-2-fluorophenyl}sulfonyl)-2-hydroxypropanimidamide] | – | 0.18 |
| CC(=N)NS(=O)(=O)c1cccc(C(=O)C(C(=O)c2cccc(F)c2)=C2Nc3ccccc3N2)c1 [Example 245] | – | 0.058 |
| CC(C)(O)C(=N)NS(=O)(=O)c1cccc(C(=O)C(C(=O)c2cccc(F)c2)=C2Nc3ccccc3N2)c1 [Example 211] | – | 0.094 |

Second part, the compound after the results:

| IC50 [1] [nM] | IC50 [2] [nM] | Structure (SMILES) |
| --- | --- | --- |
| 0.053 | – | CC(=N)NS(=O)(=O)c1cccc(C(=O)C(C(=O)c2cc(F)cc(F)c2)=C2Nc3ccccc3N2)c1 [Example 73] |
| 0.066 | – | O=C(C(C(=O)c1cccc(S(=O)(=O)NCCO)c1)=C1Nc2ccccc2N1)c1cc(F)cc(F)c1 [Example 77] |
| 7.1 | – | CC(=N)NC(=O)c1cccc(C(=O)C(C(=O)c2cc(F)cc(F)c2)=C2Nc3ccccc3N2)c1 [compound 1, reference compound] |
| 16 | – | CC(=O)NC(N)=NC(=O)c1cccc(C(=O)C(C(=O)c2cc(F)cc(F)c2)=C2Nc3ccccc3N2)c1 [Comparative Example 3, reference compound] |
| 9.6 | – | O=C(NCCO)c1cccc(C(=O)C(C(=O)c2cc(F)cc(F)c2)=C2Nc3ccccc3N2)c1 [compound 4, reference compound] |
